In patent US20210353595A1, “USE OF MELATONIN IN PREPARATION OF MEDICAMENT FOR INHIBITING AND/OR KILLING BACTERIUM” (priority 2020, published 2021):

Tests used:
[1] = test system: Pasteurella multocida; assay: Growth curve with exogenous citric acid; type: cell-based; conditions: citric acid 1, 2, 3 mg/mL alone; FIG. 16
Method: Here, 1 mL of Pasteurella multocida (1×10^9 CFU) at the logarithmic growth stage was added into 100 mL of fresh and sterile Martin broth medium containing different concentrations of citric acid (CA-1 mg/ml, CA-2 mg/mL, and CA-3 mg/mL), and citric acid-free DMSO was used as a solvent control group. The bacterial cells were cultured in a constant-temperature shaker at 37° C. and 220 rpm for […]. Then, the growth curve of the cells was determined. Each experiment was repeated for three times, and each group was set in triplicate.

[2] = test system: Pasteurella multocida; assay: Leakage of cell contents with melatonin and citric acid; type: cell-based; conditions: MT with CA (1/1, 2/2, 3/3 mg/mL), 12 h
Method: Additionally, 1 mL of Pasteurella multocida (1×10^9 CFU) at the logarithmic growth stage was added into 100 mL of fresh and sterile Martin broth medium containing different concentrations of melatonin and citric acid (CA) (MT-1 mg/mL, MT-2 mg/mL, MT-3 mg/mL, CA-1 mg/mL, CA-2 mg/mL, CA-3 mg/mL, MT-1 mg/mL-CA-1 mg/mL, MT-2 mg/mL-CA-2 mg/mL, MT-3 mg/mL-CA-3 mg/mL). The melatonin-free DMSO was used as a solvent control group, and the bacterial cells were cultured in a shaker at 37° C. and 220 rpm for 12 h. Thereafter, 1 mL of the bacterial solution was taken and centrifuged at 3000 r/min for 10 minutes, and the supernatant and precipitated cells were collected, respectively. At the same time, 2.5 mmol/mL of […] (ONPG) and Pasteurella multocida were added to detect ([…]. The concentrations of protein, alkaline phosphatase (AKP) and reducing sugar in the supernatant were determined sequentially using respective determination kits. The β-galactosidase in the supernatant was determined by measuring the optical density at 420 nm (OD420). Each experiment was carried out for three times, and each group was set in triplicate.

[3] = test system: Pasteurella multocida; assay: Growth curve with melatonin and citric acid; type: cell-based; conditions: MT 1-3 mg/mL with CA 1-3 mg/mL, 12 h; FIG. 17
Method: 1 mL of Pasteurella multocida (1×10^9 CFU) at the logarithmic growth stage was also added into 100 mL of fresh and sterile Martin broth medium containing different concentrations of melatonin and citric acid (CA) (MT-1 mg/mL, MT-1 mg/mL-CA-1 mg/mL, MT-1 mg/mL-CA-2 mg/mL, MT-1 mg/mL-CA-3 mg/mL; MT-2 mg/mL, MT-2 mg/mL-CA-1 mg/mL, MT-2 mg/mL-CA-2 mg/mL, MT-2 mg/mL-CA-3 mg/mL; MT-3 mg/mL, MT-3mg/mL-CA-1 mg/mL, MT-3 mg/mL-CA-2 mg/mL, and MT-3 mg/mL-CA-3 mg/mL). DMSO not containing melatonin and citric acid was used as a solvent control group, and the bacterial cells were cultured in a constant-temperature shaker at 37° C. and 220 rpm for 12 h. Then the growth curve of the cells were determined. Each experiment was carried out for three times, and each group was set in triplicate.

[4] = test system: Klebsiella pneumoniae; assay: Growth curve with melatonin and citric acid; type: cell-based; conditions: MT 1-3 mg/mL with CA 1-3 mg/mL, FIG. 27
Method: (§1) In additional studies, 1 mL of Klebsiella pneumoniae, Pseudomonas aeruginosa, Diplococcus pneumoniae and Streptococcus pneumoniae at the logarithmic growth stage was added into 100 mL of fresh and sterile Martin broth medium containing different concentrations of melatonin and citric acid (CA) (MT-1 mg/mL, MT-1 mg/mL-CA-1 mg/mL, MT-1 mg/mL-CA-2 mg/mL, MT-1 mg/mL-CA-3 mg/mL; MT-2 mg/mL, MT-2 mg/mL-CA-1 mg/mL, MT-2 mg/mL-CA-2 mg/mL, MT-2 mg/mL-CA-3 mg/mL; MT-3 mg/mL, MT-3 mg/mL-CA-1 mg/mL, MT-3 mg/mL-CA-2 mg/mL MT-3 mg/mL-CA-3 mg/mL).

[5] = test system: Pseudomonas aeruginosa; assay: Growth curve with melatonin and citric acid; type: cell-based; conditions: MT 1-3 mg/mL with CA 1-3 mg/mL, FIG. 27
Method: as §1

[6] = test system: P. multocida cells; assay: SEM and TEM morphology of bacterial cells; type: cell-based, Pasteurella multocida; conditions: combined action of melatonin and citric acid; FIG. 18
Method: The effect of melatonin on the morphologies of P. multocida cells were evaluated employing SEM and TEM. 1 mL of fresh Pasteurella multocida (1×10^9 CFU) at the logarithmic growth stage was added into 100 mL of fresh Martin liquid medium containing different concentrations (1, 2 or 3 mg/mL) of MT. MT-free DMSO was used as a solvent control group and ampicillin (100 μg/mL) was used as a positive control group. All cultures were shaken at 220 rpm in a shaker at 37° C. for 8 hours, 12 hours or 16 hours. The bacterial samples were centrifuged at 3000 r/min for 10 minutes, the supernatant was removed, and cells were collected and washed with PBS for 3 times. Then the cells were fixed with a fixation solution of 2.5% fresh glutaraldehyde for 6 hours, and washed with PBS for 3 times, each time for 10 minutes. Subsequently, the SEM samples were dehydrated with 50%, 70%, 80% and 90% ethanol for 15 minutes respectively, and then dehydrated with 100% ethanol for 3 times, each time for 30 minutes. Ethanol was removed by washing with tert-butyl alcohol for three times, each time for 30 minutes. The samples were dried by a freeze dryer and plated with 10 nm of gold film by an ion sputtering device. The samples were examined using a field scanning electron microscope (FESEM, Hitch SU8010).
The TEM samples were fixed with 1%-2% […] for 2-3 hours, and washed with […] 3 times, each time for 10 minutes. The samples were dehydrated with 30%, 50%, 70%, 80% and 90% ethanol for 20 minutes respectively, and then dehydrated with 100% ethanol 3 times, each time for 30 minutes. Ethanol was replaced with acetone three times, each time for 30 minutes. The bacterial samples were placed on a copper grid with a formvar membrane, and negatively stained with phosphotungstic acid (2% v/v, pH=6.7). The surface area of the sample was less than 0.2 mm×0.2 mm, and slice thickness was between 50 and 90 nm (Lycra UC7). The samples were detected by TEM (Hitachi H-7650) at 80 kV, and photographs of the samples were taken by a Gatan832 CCD camera (Gatan). […]

O=C(O)CC(O)(CC(=O)O)C(=O)O [citric acid]
growth of Pasteurella multocida [1]: promotes the growth | melatonin-induced release of reducing sugar ([2]; FIG. 19): significantly reduces | melatonin-induced release of proteins ([2]; FIG. 20): significantly reduces | melatonin-induced release of AKP enzymes (alkaline phosphatase) ([2]; FIG. 21): significantly reduces | melatonin-induced release of β-galactosidase ([2]; FIG. 22): significantly reduces | melatonin-induced activity (release) of ATPase ([2]; FIG. 23): significantly reduces | effect of added citric acid on antibacterial activity of melatonin [3]: reduces the antibacterial activity of melatonin | effect of exogenous citric acid on bacteriostatic effect of melatonin [4]: can reduce the bacteriostatic effect of melatonin | effect of exogenous citric acid on bacteriostatic effect of melatonin [5]: can reduce the bacteriostatic effect of melatonin | cytoplasmic vacuolization and irregular cell membrane caused by melatonin (TEM) [6]: disappeared
